Legend:
Type in all cases: in vivo
soybean [1] = assay: Example 2: soybean nodule weight one week after foliar spray
Protocol: Medium-term fertilizer effect type culture soil (Takii hydrous cell medium-term fertilizer effect type, Takii & Co., Ltd.) and vermiculite grains (Akagi-Engei Co., Ltd.) were mixed at a volume ratio of 1:1, and the soil was placed in a polypot (diameter: 10.5 cm, height: 9 cm). The soybean seeds used were “Enrei” (purchased from Nikko Seed Co. Ltd.). After tap water was supplied in an amount of 250 mL per pot, 2 seeds per pot were each sown at a depth of from about 1 to 2 cm from the soil surface. The number of repeats in each test plot was 6 (n=6).
1.5% agar (Wako Pure Chemical Industries, Ltd.) was added to Yeast-Mannitol (YM) medium (0.5 g of K2HPO4, 0.2 g of MgSO4-7H2O, 0.1 g of NaCl, 0.4 g of yeast extract, 10 g of mannitol, and 1 L of distilled water (pH: 6.8)) to prepare a solid medium, and a soybean Rhizobium (Bradyrhizobium japonicum) NBRC14783T strain was grown on the solid medium. A platinum loop of the grown Rhizobium was taken and inoculated in 50 mL of YM liquid medium in a Sakaguchi flask with a volume of 500 mL, and shake-cultured at 30° C. for about 36 hours. A Rhizobium culture solution whose value of turbidity OD600 of bacterial cells was about 0.3 was prepared. […]
(§1) The mean and the standard deviation were calculated from the data of four repeats, excluding the highest and the lowest values from the six repeats in each test plot.

soybean [2] = assay: Example 3: soybean nodule activity, mixing ratio of ascorbic acid and antioxidant; settings: ascorbic acid dissolved in tap water, in comparison to no application
Protocol: The items of the preparation of soil and sowing, the inoculation of Rhizobium, the exudate collection method for measuring the amount of ureide nitrogen, which serves as an indicator of nodule activity, the experimental operation before quantification of exudate, the equipment and measurement method used for quantification of the amount of ureide nitrogen, and the standard products used and quantification were the same as those in Example 2, and the cultivation of soybean was carried out for 21 days.
The cultivation was carried out in an artificial weather apparatus (LPH-411SP, Nippon Medical & Chemical Instruments Co., Ltd.), with the light condition of a light period (light intensity from […]) of 16 hours/a dark period of 8 hours, the temperature of 30° C. for the light period/25° C. for the dark period, and a humidity of 50%. On day 7 after sowing, the plants were thinned so as to be one plant per pot. Watering was carried out by adding water to a vat placed under the pot so that about 5 cm of the lower part of the pot would be submerged after the vat had run out of water.
The spraying solutions shown in Table 4 below were prepared in the same manner as in Example 2, and 6.7 mL of each was sprayed per plant using a mister an day 14 after sowing. Foliar spray was carried out only once, and 7 types of test plots were examined (Table 4). […]

soybean [3] = assay: Example 5: soybean nodule activity after application of high concentration of ascorbic acid; settings: ascorbic acid dissolved in deionized water in comparison to tap water, regardless of amount of water
Excerpt: The items of the preparation of soil and sowing, the inoculation of Rhizobium, the cultivation conditions, the exudate collection method for measuring the amount of ureide nitrogen as an indicator of nodule activity, the experimental operation before quantification of exudate, the equipment and measurement method used for quantification of the amount of ureide nitrogen, and the standard products used and quantification were the same as those in Example 3, and the cultivation of soybean was carried out for 21 days.
Foliar spray treatment was carried out on day 14 after sowing. In addition to the reagents mentioned in Examples 2, 3, and 4, polyethylene glycol monolaurate and a glycerol fatty acid ester were used as nonionic surfactants. The reagents were dissolved in tap water or deionized water to prepare spraying solutions. Foliar spray was carried out only once. Assuming aerial spraying, 8 types of test plots containing a high concentration of ascorbic acid were examined (Table 6). In the test plots 2 and 3, 6.7 mL of each per plant was sprayed using a mister, and in the test plots 4 to 8, 0.125 mL of each per plant was sprayed.
as §1

## O=C1O[C@H]([C@@H](O)CO)C(O)=C1O [ascorbic acid, (R)-3,4-dihydroxy-5-((S)-1,2-dihydroxyethyl)furan-2(5H)-one]
Soybean [1]; ascorbic acid 1,500 ppm dissolved in deionized water, soybean early growth stage
  nodule weight: increased
Soybean [1]; ascorbic acid 1,500 ppm dissolved in tap water
  application effect of ascorbic acid (nodule weight): tended to decrease
Soybean [2]
  nodule activity (allantoin and allantoic acid in exudate): did not change or rather decreased
Soybean [3]
  nodule activity (allantoic acid in exudate): increased

Reference: patent US20250280826A1, “PLANT GROWTH PROMOTER” (KAO CORPORATION, priority 2022, published 2025)
